Source: patent publication US9914730B2, “Azaquinazoline inhibitors of Atypical protein Kinase C” (Ignyta, Inc., priority 2012, dated 2018)

Target: T1, full-length human PKCι (Homo sapiens, UniProt P41743)
T1 construct: Recombinant, full-length human PKCι expressed in Sf21 insect cells is also commercially available; purchased; host or cells: Sf21 insect cells
T1 sequence (P41743 1-596): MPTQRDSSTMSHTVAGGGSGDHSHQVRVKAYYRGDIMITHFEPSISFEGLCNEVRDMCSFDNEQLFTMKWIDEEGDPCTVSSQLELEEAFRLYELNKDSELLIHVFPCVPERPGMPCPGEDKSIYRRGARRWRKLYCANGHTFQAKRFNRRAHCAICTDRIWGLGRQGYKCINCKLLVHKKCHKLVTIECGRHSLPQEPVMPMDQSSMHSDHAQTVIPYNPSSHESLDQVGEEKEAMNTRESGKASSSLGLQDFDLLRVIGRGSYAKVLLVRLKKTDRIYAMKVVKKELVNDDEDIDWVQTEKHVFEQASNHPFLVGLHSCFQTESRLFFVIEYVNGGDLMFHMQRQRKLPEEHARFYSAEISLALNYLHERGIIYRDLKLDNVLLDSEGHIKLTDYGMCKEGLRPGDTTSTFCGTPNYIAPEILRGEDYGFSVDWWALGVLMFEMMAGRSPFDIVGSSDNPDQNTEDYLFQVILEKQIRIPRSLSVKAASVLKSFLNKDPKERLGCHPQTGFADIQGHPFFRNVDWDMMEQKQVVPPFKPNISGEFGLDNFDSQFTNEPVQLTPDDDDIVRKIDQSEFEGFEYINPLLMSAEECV
Assay: PKCι IC50 IMAP assay, full-length PKCι at 150 μM ATP
Assay type: biochemical
Details: read-out: IC50 in IMAP assay against full length PKCi at 150 μM ATP
Method in brief: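 IMAP fluorescence polarisation (ex 485/em 530 nm) read-out; % inhibition set from no-compound (0%) and no-enzyme (100%) controls, IC50 from dose-response curve fit. Sf21-expressed full-length enzyme ~15 pM, 100 nM FAM peptide, ATP 150 μM (5× KM^APP), 60 min at RT.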

Row | IC50 [nM] | Structure (SMILES)
1 | < 100 | COc1ccc(Nc2cc(-c3nc(N4CCNCC4)c4c(C5CC5)cncc4n3)ccn2)cc1OC [Example 610, [4-(5-Cyclopropyl-4-piperazin-1-yl-pyrido[3,4-d]pyrimidin-2-yl)-pyridin-2-yl]-(3,4-dimethoxy-phenyl)-amine]
2 | 100 to 1000 | COc1cc(Nc2cc(-c3nc(N4CCNCC4)c4c(C5CC5)cncc4n3)ccn2)cc(OC)c1OC [Example 611, [4-(5-Cyclopropyl-4-piperazin-1-yl-pyrido[3,4-d]pyrimidin-2-yl)-pyridin-2-yl]-(3,4,5-trimethoxy-pheny)-amine]
3 | < 100 | O=C(Cc1ccccc1)Nc1cc(-c2nc(N3CCNCC3)c3c(C4CC4)cncc3n2)ccn1 [Example 612, N-[4-(5-Cyclopropyl-4-piperazin-1-yl-pyrido[3,4-d]pyrimidin-2-yl)-pyridin-2-yl]-2-phenyl-acetamide]
4 | < 100 | O=C(CC(F)(F)F)Nc1cc(-c2nc(N3CCNCC3)c3c(C4CC4)cncc3n2)ccn1 [Example 613, N-[4-(5-Cyclopropyl-4-piperazin-1-yl-pyrido[3,4-d]pyrimidin-2-yl)-pyridin-2-yl]-3,3,3-trifluoro-propionamide]
5 | < 100 | CN1CCP(=O)(c2ccc(Nc3cc(-c4nc(N5CCNCC5)c5c(C6CC6)cncc5n4)ccn3)cc2)CC1 [Example 614, [4-(5-Cyclopropyl-4-piperazin-1-yl-pyrido[3,4-d]pyrimidin-2-yl)-pyridin-2-yl]-[4-(1-methyl-4-oxo-4λ^5-[1,4]azaphos-phinan-4-yl)-phenyl]-amine]
6 | 100 to 1000 | FC(F)(F)CC1CN(c2nc(-c3ccnc(Cl)c3)nc3cncc(C4CC4)c23)CCN1 (stereo not drawn) [Example 615, 2-(2-Chloro-pyridin-4-yl)-5-cyclopropyl-4-[3-(2,2,2-trifluoro-ethyl)-piperazin-1-yl]-pyrido[3,4-d]pyrimidine]
7 | < 100 | Fc1cccc(Cl)c1Nc1cc(-c2nc(N3CCNCC3)c3c(C4CC4)cncc3n2)ccn1 [Example 616, (2-Chloro-6-fluoro-phenyl)-[4-(5-cyclopropyl-4-piperazin-1-yl-pyrido[3,4-d]pyrimidin-2-yl)-pyridin-2-yl]-amine]
8 | < 100 | Cc1ccc(Cl)c(Nc2cc(-c3nc(N4CCNCC4)c4c(C5CC5)cncc4n3)ccn2)c1F [Example 617, (6-Chloro-2-fluoro-3-methyl-phenyl)-[4-(5-cyclopropyl-4-piperazin-1-yl-pyrido[3,4-d]pyrimidin-2-yl)-pyridin-2-yl]-amine]
9 | < 100 | Fc1ccc(Cl)c(F)c1Nc1cc(-c2nc(N3CCNCC3)c3c(C4CC4)cncc3n2)ccn1 [Example 618, (3-Chloro-2,6-difluoro-phenyl)-[4-(5-cyclopropyl-4-piperazin-1-yl-pyrido[3,4-d]pyrimidin-2-yl)-pyridin-2-yl]-amine]
10 | < 100 | c1ccc(Nc2cc(-c3nc(N4CCNCC4)c4c(C5CCC5)cncc4n3)ccn2)cc1 [Example 619, [4-(5-Cyclobutyl-4-piperazin-1-yl-pyrido[3,4-d]pyrimidin-2-yl)-pyridin-2-yl]-phenyl-amine]
11 | < 100 | Fc1cccc(F)c1Nc1cc(-c2nc(N3CCNCC3)c3c(C4CCC4)cncc3n2)ccn1 [Example 620, [4-(5-Cyclobutyl-4-piperazin-1-yl-pyrido[3,4-d]pyrimidin-2-yl)-pyridin-2-yl]-(2,6-difluoro-phenyl)-amine]
12 | < 100 | FC1(F)CCC(Nc2cc(-c3nc(N4CCNCC4)c4c(C5CC5)cncc4n3)ccn2)C1 (stereo not drawn) [Example 621, [4-(5-Cyclopropyl-4-piperazin-1-yl-pyrido[3,4-d]pyrimidin-2-yl)-pyridin-2-yl]-(3,3-difluoro-cyclopentyl)-amine]
13 | < 100 | CC(C)c1cccc(Nc2cc(-c3nc(N4CCNCC4)c4c(C5CC5)cncc4n3)ccn2)c1 [Example 622, [4-(5-Cyclopropyl-4-piperazin-1-yl-pyrido[3,4-d]pyrimidin-2-yl)-pyridin-2-yl]-(3-isopropyl-phenyl)-amine]
14 | < 100 | CCc1cccc(Nc2cc(-c3nc(N4CCNCC4)c4c(C5CC5)cncc4n3)ccn2)c1 [Example 623, [4-(5-Cyclopropyl-4-piperazin-1-yl-pyrido[3,4-d]pyrimidin-2-yl)-pyridin-2-yl]-(3-ethyl-phenyl)-amine]
15 | 100 to 1000 | FC(F)(F)C1CN(c2nc(-c3ccnc(Cl)c3)nc3cncc(C4CC4)c23)CCN1 (stereo not drawn) [Example 624, 2-(2-Chloro-pyridin-4-yl)-5-cyclopropyl-4-(3-trifluoromethyl-piperazin-1-yl)-pyrido[3,4-d]pyrimidine]
16 | 100 to 1000 | CCN1CCP(=O)(c2ccc(Nc3cc(-c4nc(N5CCNCC5)c5c(C6CC6)cncc5n4)ccn3)c(OC)c2)CC1 [Example 625, [4-(5-Cyclopropyl-4-piperazin-1-yl-pyrido[3,4-d]pyrimidin-2-yl)-pyridin-2-yl]-[4-(1-ethyl-4-oxo-4λ^5-[1,4]azaphos-phinan-4-yl)-2-methoxy-phenyl]-amine]
17 | < 100 | CC(=O)Nc1cc(-c2nc(N3CCNC(CC(F)(F)F)C3)c3c(C4CC4)cncc3n2)ccn1 (stereo not drawn) [Example 626, N-(4-{5-Cyclopropyl-4-[3-(2,2,2-trifluoro-ethyl)-piperazin-1-yl]-pyrido[3,4-d]pyrimidin-2-yl}-pyridin-2-yl)-acetamide]
18 | < 100 | COc1cc(Nc2cc(-c3nc(N4CCNCC4)c4c(C5CC5)cncc4n3)ccn2)ccc1F [Example 627, [4-(5-Cyclopropyl-4-piperazin-1-yl-pyrido[3,4-d]pyrimidin-2-yl)-pyridin-2-yl]-(4-fluoro-3-methoxy-phenyl)-amine]
19 | < 100 | COc1cc(Nc2cc(-c3nc(N4CCNCC4)c4c(C5CC5)cncc4n3)ccn2)c(F)cc1F [Example 628, [4-(5-Cyclopropyl-4-piperazin-1-yl-pyrido[3,4-d]pyrimidin-2-yl)-pyridin-2-yl]-(2,4-difluoro-5-methoxy-phenyl)-amine]
20 | < 100 | c1cc(-c2nc(N3CCNCC3)c3c(C4CC4)cncc3n2)cc(NCC2CC2)n1 [Example 629, Cyclopropyl-methyl-[4-(5-cyclopropyl - 4-piperazin-1-yl-pyrido[3,4-d]pyrimidin-2-yl)-pyridin-2-yl]-amine]
21 | < 100 | CNc1cc(-c2nc(N3CCNCC3)c3c(C4CC4)cncc3n2)ccn1 [Example 630, [4-(5-Cyclopropyl-4-piperazin-1-yl-pyrido[3,4-d]pyrimidin-2-yl)-pyridin-2-yl]-methyl-amine]
22 | 100 to 1000 | N#Cc1ccc(Nc2cc(-c3nc(N4CCNCC4)c4c(C5CC5)cncc4n3)ccn2)cc1F [Example 631, 4-[4-(5-Cyclopropyl-4-piperazin-1-yl-pyrido[3,4-d]pyrimidin-2-yl)-pyridin-2-ylamino]-2-fluoro-benzonitrile]
23 | < 100 | c1ccc(Nc2cc(-c3nc(N4CCCNCC4)c4c(C5CC5)cncc4n3)ccn2)cc1 [Example 632, [4-(5-Cyclopropyl-4-[1,4]diazepan-1-yl-pyrido[3,4-d]pyrimidin-2-yl)-pyridin-2-yl]-phenyl-amine]
24 | < 100 | OC1CCC(Nc2cc(-c3nc(N4CCNCC4)c4c(C5CC5)cncc4n3)ccn2)CC1 (stereo not drawn) [Example 633, 4-[4-(5-Cyclopropyl-4-piperazin-1-yl-pyrido[3,4-d]pyrimidin-2-yl)-pyridin-2-ylamino]-cyclohexanol]
